Earlier results, collected in patent US6815409B2, “Gel laundry detergent and/or pretreater which piles up after dispensing” (Unilever Home & Personal Care USA division of Conopco, Inc., priority 2002, dated 2004).

Conditions: chain length 16; cited from Proc. R. Soc. London, A133, 140, 1931

Question: For `CCCCCCCCCCCCCCCC(=O)O` [Fatty acid chain length 16], which “Measured pKa value” is on record?
Answer: Its value is 8.5.
